The values that follow come from US10407429B2, “Pyrazolo[1,5-a]triazin-4-amine derivatives useful in therapy” (Curovir AB, priority 2015, dated 2019).

As usually defined, the pIC50 is the negative decadic logarithm of the IC50, by convention in mol/L.

Assay type in all cases: cell-based
One test deals with polio virus Sabin 1. The test is described as follows: organism not typed. The conditions noted are these: read-out: inhibition capacity (IC50) Polio 1.
A further test has as its system Enterovirus 71. The test is described as follows: Antiviral CPE assay in mammalian cell culture. As to conditions: Enterovirus A, EV71, prevention of viral CPE, read-out: inhibition capacity (IC50) EV71.
Another test relates to coxsackie B5virus. The test is described as follows: Antiviral CPE assay in mammalian cell culture. As to conditions: read-out: inhibition capacity (IC50) B5.
The subject of another test is coxsackie B1 virus. Put plainly: Antiviral CPE assay in mammalian cell culture. The conditions noted are these: read-out: inhibition capacity (IC50) Bl.
The next test has as its system Enterovirus 6. The test is described as follows: Antiviral CPE assay in mammalian cell culture. As to conditions: prevention of viral CPE, read-out: inhibition capacity (IC50) EV6.
The next test relates to coxsackie B2 virus. The test is described as follows: Antiviral CPE assay in mammalian cell culture. The conditions noted are these: read-out: inhibition capacity (IC50) B2.
The next test deals with Enterovirus 68. The test is described as follows: Antiviral CPE assay in mammalian cell culture. The conditions noted are these: Enterovirus D.
The next test deals with coxsackie B 4 virus. Put plainly: Antiviral CPE assay in mammalian cell culture. The conditions noted are these: Enterovirus B.
The test system of a further test is coxsackie B3 virus. The test is described as follows: Antiviral CPE assay in mammalian cell culture. As to conditions: Enterovirus B.
For another test, the system named is Enterovirus 30. The test is described as follows: Antiviral CPE assay in mammalian cell culture. As to conditions: read-out: inhibition capacity (IC50) EV30.
[1] abbreviates: EV68, read-out: inhibition capacity (IC50) EV68.
Setting [2] is: B4, read-out: inhibition capacity (IC50) B4.
Where [3] appears, read: B3, read-out: inhibition capacity (IC50) B3.

pIC50: −log10 of the molar value. Where two headings read alike, the source gives them in different places.

`COc1ccc(-c2c(C)nn3c(NCc4ccn(C)n4)nc(C)nc23)cc1OC` [Example 27, 8-(3,4-dimethoxyphenyl)-2,7-dimethyl-N-[(1-methyl-1H-pyrazol-3-yl)methyl]pyrazolo[1,5-a][1,3,5]triazin-4-amine]: the pIC50 with polio virus Sabin 1 was more than 8.00; with Enterovirus 71, more than 7.00; in the test with coxsackie B5virus, more than 7.00; in the test on coxsackie B1 virus it was more than 8.00; in the test on Enterovirus 6, more than 6.00; in the test with coxsackie B2 virus, more than 8.00. Also, the pIC50 with Enterovirus 68 (setting [1]) was more than 8.00; with coxsackie B 4 virus (setting [2]), more than 8.00; with coxsackie B3 virus (setting [3]), more than 7.00; in the test with Enterovirus 30 (Enterovirus) it was more than 7.00.
With `COc1ccc(-c2c(C)nn3c(NCc4cccnc4)nc(C)nc23)cc1OC` [Example 22, 8-(3,4-dimethoxyphenyl)-2,7-dimethyl-N-(3-pyridylmethyl)pyrazolo[1,5-a][1,3,5]triazin-4-amine], the pIC50 in the test with polio virus Sabin 1, in the test with Enterovirus 71, in the test on coxsackie B5virus, in the test with coxsackie B1 virus, in the test with Enterovirus 6 and in the test with coxsackie B2 virus was more than 7.00 each time. The pIC50 in the test on Enterovirus 68 (setting [1]), in the test on coxsackie B 4 virus (setting [2]), in the test with coxsackie B3 virus (setting [3]) and in the test with Enterovirus 30 (Enterovirus) was more than 7.00 each time.
For the compound `COc1ccc(-c2c(C)nn3c(NCc4ccc(Cl)cc4)nc(C)nc23)cc1OC` [Example 8, N-[(4-chlorophenyl)methyl]-8-(3,4-dimethoxyphenyl)-2,7-dimethyl-pyrazolo[1,5-a][1,3,5]triazin-4-amine], the pIC50 with polio virus Sabin 1 was more than 7.00; in the test with Enterovirus 71, more than 6.00; in the test with coxsackie B5virus it was more than 6.00; in the test with coxsackie B1 virus, more than 7.00; in the test on Enterovirus 6, more than 6.00; in the test on coxsackie B2 virus, more than 7.00. The pIC50 with Enterovirus 68 (setting [1]), in the test with coxsackie B 4 virus (setting [2]), with coxsackie B3 virus (setting [3]) and with Enterovirus 30 (Enterovirus) was more than 7.00 in each case.
For the compound `COc1ccc(-c2c(C)nn3c(NCc4ccc(C(C)C)cc4)nc(C)nc23)cc1OC` [Example 4, 8-(3,4-dimethoxyphenyl)-N-[(4-isopropylphenyl)methyl]-2,7-dimethyl-pyrazolo[1,5-a][1,3,5]triazin-4-amine], the pIC50 with polio virus Sabin 1, with Enterovirus 71, in the test with coxsackie B5virus, in the test with coxsackie B1 virus, with Enterovirus 6 and in the test with coxsackie B2 virus was more than 6.00 each time. For the same compound, the pIC50 in the test on Enterovirus 68 (setting [1]), in the test on coxsackie B 4 virus (setting [2]), in the test on coxsackie B3 virus (setting [3]) and with Enterovirus 30 (Enterovirus) was more than 6.00 each time.
`COc1ccc(-c2c(C)nn3c(NCc4ccc(C(F)(F)F)cc4)nc(C)nc23)cc1OC` [Example 2, 8-(3,4-dimethoxyphenyl)-2,7-dimethyl-N-[[4-(trifluoromethyl)phenyl]methyl]pyrazolo[1,5-a][1,3,5]triazin-4-amine]: the pIC50 is more than 7.00 in the test on polio virus Sabin 1; more than 6.00 in the test with Enterovirus 71; more than 7.00 with coxsackie B5virus; more than 7.00 in the test with coxsackie B1 virus; more than 6.00 with Enterovirus 6; more than 7.00 in the test with coxsackie B2 virus. For the same compound, the pIC50 in the test with Enterovirus 68 (setting [1]) was more than 6.00; in the test on coxsackie B 4 virus (setting [2]) it was more than 7.00; with coxsackie B3 virus (setting [3]), more than 6.00; in the test with Enterovirus 30 (Enterovirus) it was more than 7.00.
In the case of `COc1ccc(-c2c(C)nn3c(NCc4ccccn4)nc(C)nc23)cc1OC` [Example 5, 8-(3,4-dimethoxyphenyl)-2,7-dimethyl-N-(2-pyridylmethyl)pyrazolo[1,5-a][1,3,5]triazin-4-amine], the pIC50 with polio virus Sabin 1 was more than 7.00; with Enterovirus 71, more than 6.00; in the test with coxsackie B5virus it was more than 6.00; in the test with coxsackie B1 virus, more than 7.00; in the test with Enterovirus 6, more than 6.00; in the test on coxsackie B2 virus, more than 7.00. In addition, the pIC50 with Enterovirus 68 (setting [1]), in the test on coxsackie B 4 virus (setting [2]), with coxsackie B3 virus (setting [3]) and with Enterovirus 30 (Enterovirus) was more than 6.00 in each case.
In the case of `COc1ccc(-c2c(C)nn3c(NCCc4ccc(Cl)cc4)nc(C)nc23)cc1OC` [Example 7, N-[2-(4-chlorophenyl)ethyl]-8-(3,4-dimethoxyphenyl)-2,7-dimethyl-pyrazolo[1,5-a][1,3,5]triazin-4-amine], the pIC50 in the test on polio virus Sabin 1, in the test with Enterovirus 71, in the test on coxsackie B5virus, in the test on coxsackie B1 virus, with Enterovirus 6 and with coxsackie B2 virus was more than 6.00 throughout. The pIC50 in the test with Enterovirus 68 (setting [1]), in the test on coxsackie B 4 virus (setting [2]), in the test with coxsackie B3 virus (setting [3]) and in the test on Enterovirus 30 (Enterovirus) was more than 6.00 in each case.
On to `COc1ccc(-c2c(C)nn3c(NCc4cnco4)nc(C)nc23)cc1OC` [Example 28, 8-(3,4-dimethoxyphenyl)-2,7-dimethyl-N-[(1,3-oxazol-5-yl)methyl]pyrazolo[1,5-a][1,3,5]triazin-4-amine], for which the pIC50 with polio virus Sabin 1 is more than 7.00; with Enterovirus 71, more than 7.00; in the test with coxsackie B5virus, more than 6.00; in the test with coxsackie B1 virus, more than 7.00; with Enterovirus 6, more than 7.00; with coxsackie B2 virus, more than 7.00. Further, the pIC50 is more than 8.00 with Enterovirus 68 (setting [1]), more than 7.00 with coxsackie B 4 virus (setting [2]), more than 7.00 with coxsackie B3 virus (setting [3]) and less than 6.00 in the test with Enterovirus 30 (Enterovirus).
As to `COc1ccc(-c2c(C)nn3c(NCc4cnc(C)nc4)nc(C)nc23)cc1OC` [Example 30, 8-(3,4-dimethoxyphenyl)-2,7-dimethyl-N-[(2-methylpyrimidin-5-yl)methyl]pyrazolo[1,5-a][1,3,5]triazin-4-amine], the negative logarithm of the IC50 (pIC50) in the test on polio virus Sabin 1 is more than 7.00; in the test with Enterovirus 71, more than 7.00; in the test on coxsackie B5virus it was more than 6.00; in the test with coxsackie B1 virus it was more than 6.00; in the test on Enterovirus 6, more than 6.00; with coxsackie B2 virus it was more than 6.00. Also, the pIC50 with Enterovirus 68 (setting [1]) was more than 7.00; in the test on coxsackie B 4 virus (setting [2]), more than 7.00; with coxsackie B3 virus (setting [3]), more than 6.00; in the test with Enterovirus 30 (Enterovirus) it was more than 7.00.
As for `COc1ccc(-c2c(C)nn3c(NCc4ccc(C)nc4)nc(C)nc23)cc1OC` [Example 32, 8-(3,4-dimethoxyphenyl)-2,7-dimethyl-N-[(6-methylpyridin-3-yl)methyl]pyrazolo[1,5-a][1,3,5]triazin-4-amine], the pIC50 with polio virus Sabin 1 is more than 7.00; in the test with Enterovirus 71, more than 7.00; with coxsackie B5virus (prevention of viral CPE, mammalian cell culture, coxsackie B5 virus), more than 7.00; in the test with coxsackie B1 virus (prevention of viral CPE, mammalian cell culture, coxsackie B1 virus), more than 7.00; in the test on Enterovirus 6 it was more than 7.00; in the test with coxsackie B2 virus (prevention of viral CPE, mammalian cell culture, coxsackie B2 virus), more than 7.00. Besides, the pIC50 with Enterovirus 68 (EV68, prevention of viral CPE, mammalian cell culture, Enterovirus 68, read-out: inhibition capacity (IC50) EV68) is more than 7.00; in the test on coxsackie B 4 virus (prevention of viral CPE, mammalian cell culture, coxsackie B4 virus, read-out: inhibition capacity (IC50) B4), more than 7.00; with coxsackie B3 virus (prevention of viral CPE, mammalian cell culture, coxsackie B3 virus, read-out: inhibition capacity (IC50) B3) it was more than 8.00; with Enterovirus 30 (prevention of viral CPE, mammalian cell culture, Enterovirus 30) it was more than 8.00.
For `COc1ccc(-c2c(C)nn3c(NCC4CCCCC4)nc(C)nc23)cc1OC` [Example 15, N-(cyclohexylmethyl)-8-(3,4-dimethoxyphenyl)-2,7-dimethyl-pyrazolo[1,5-a][1,3,5]triazin-4-amine], the pIC50 with polio virus Sabin 1, with Enterovirus 71, with coxsackie B5virus, with coxsackie B1 virus, in the test with Enterovirus 6 and in the test on coxsackie B2 virus was more than 6.00 throughout. Moreover, the pIC50 with Enterovirus 68 (setting [1]), with coxsackie B 4 virus (setting [2]), with coxsackie B3 virus (setting [3]) and in the test on Enterovirus 30 (Enterovirus) was more than 6.00 in each case.
Turning to `COc1ccc(-c2c(C)nn3c(NCc4ccnnc4)nc(C)nc23)cc1OC` [Example 31, 8-(3,4-dimethoxyphenyl)-2,7-dimethyl-N-[(pyridazin-4-yl)methyl]pyrazolo[1,5-a][1,3,5]triazin-4-amine], the pIC50 was more than 6.00 with polio virus Sabin 1; more than 7.00 with Enterovirus 71; more than 6.00 with coxsackie B5virus; more than 6.00 in the test with coxsackie B1 virus; more than 6.00 in the test with Enterovirus 6; more than 6.00 with coxsackie B2 virus. Besides, the pIC50 with Enterovirus 68 (setting [1]) is more than 7.00; with coxsackie B 4 virus (setting [2]), more than 8.00; in the test with coxsackie B3 virus (setting [3]), more than 6.00; in the test with Enterovirus 30 (Enterovirus) it was less than 6.00.
As to `COc1ccc(-c2c(C)nn3c(NCc4ccc5c(c4)OCO5)nc(C)nc23)cc1OC` [Example 16, N-(1,3-benzodioxol-5-ylmethyl)-8-(3,4-dimethoxyphenyl)-2,7-dimethyl-pyrazolo[1,5-a][1,3,5]triazin-4-amine], the pIC50 was more than 7.00 with polio virus Sabin 1; more than 7.00 in the test on Enterovirus 71; more than 7.00 in the test with coxsackie B5virus; more than 7.00 with coxsackie B1 virus; more than 6.00 with Enterovirus 6; more than 7.00 with coxsackie B2 virus. The pIC50 with Enterovirus 68 (setting [1]) is more than 7.00; with coxsackie B 4 virus (setting [2]), more than 8.00; in the test with coxsackie B3 virus (setting [3]), more than 7.00; with Enterovirus 30 (Enterovirus), more than 7.00.
On to `CNS(=O)(=O)c1ccc(CNc2nc(C)nc3c(-c4ccc(OC)c(OC)c4)c(C)nn23)cc1` [Example 26, N-methyl-4-[[[8-(3,4-dimethoxyphenyl)-2,7-dimethyl-pyrazolo[1,5-a][1,3,5]triazin-4-yl]amino]methyl]benzenesulfonamide], for which the pIC50 with polio virus Sabin 1 was more than 7.00; in the test with Enterovirus 71, more than 6.00; with coxsackie B5virus it was more than 6.00; in the test with coxsackie B1 virus, more than 6.00; in the test with Enterovirus 6, more than 6.00; with coxsackie B2 virus, more than 7.00. Also, the pIC50 is less than 6.00 in the test on Enterovirus 68 (setting [1]), more than 7.00 in the test on coxsackie B 4 virus (setting [2]), more than 6.00 in the test on coxsackie B3 virus (setting [3]) and more than 6.00 in the test with Enterovirus 30 (Enterovirus).
